Drawing on US20200261421A1, “HETEROCYCLIC COMPOUNDS AS HIV PROTEASE INHIBITORS” (Merck Sharp & Dohme Corp., priority 2016, published 2020), this text covers IC50 for 5 compounds.

One may read the IC50 as the concentration needed to halve the response being measured. Low values mean higher potency, high ones lower potency.

The target of the experiment is T1, wild-type HIV-1 protease (Human immunodeficiency virus type 1 group M subtype B, UniProt P04585).
T1 construct: Escherichia coli expressed wild-type HIV-1 protease protein; made in house; host or cells: Escherichia coli
Put plainly: Assay for Inhibition of Microbial Expressed HIV Protease. It is filed as biochemical. The note with it: Escherichia coli expressed wild-type HIV-1 protease, peptide substrate cleavage; mean of at least two independent experiments. Summed up: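 E. coli-expressed wild-type HIV-1 protease (20 pM) was preincubated with inhibitor for 30 min at room temperature in 50 mM sodium acetate pH 5.5, 100 mM NaCl, 0.1% BSA. It was then reacted with 400 μM peptide substrate for 1 h at 30 °C. Cleavage product was quantified by LC-MS/MS, and IC50 is the mean of at least two experiments.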

The structures appear in SMILES notation.

On to `CC(C)CC1(c2ccccc2)NC(=N)N(Cc2cc(C(=O)N(C)Cc3ccc(Cl)cc3)ccn2)C1=O` (centres unmarked) [Example 91, N-(4-chlorobenzyl)-2-{[2-imino-4-(2-methylpropyl)-5-oxo-4-phenylimidazolidin-1-yl]methyl}-N-methylpyridine-4-carboxamide], for which inhibition was half-maximal at 0.0341 µM (IC50). Regarding `CN(Cc1ccccc1S(C)(=O)=O)C(=O)c1ccnc(CN2C(=N)NC(c3ccccc3)(c3ccccc3)C2=O)c1` [Example 92, 2-[(2-imino-5-oxo-4,4-diphenylimidazolidin-1-yl)methyl]-N-methyl-N-[2-(methylsulfonyl)benzyl]pyridine-4-carboxamide], the IC50 was determined as 0.053 µM. As for `Cc1cc(CN2C(=N)NC(c3ccc(F)cc3)(c3ccc(F)cc3)C2=O)cc(C(=O)N(C)Cc2ccc(F)cc2)n1` [Example 93, 4-{[4,4-bis(4-fluorophenyl)-2-imino-5-oxoimidazolidin-1-yl]methyl}-N-(4-fluorobenzyl)-N,6-dimethylpyridine-2-carboxamide], the figure is 0.0326 µM. The figure for `CN(Cc1ccc(F)cc1)C(=O)c1csc(CN2C(=N)NC(c3ccccc3)(c3ccccc3)C2=O)c1` [Example 94, N-(4-fluorobenzyl)-5-[(2-imino-5-oxo-4,4-diphenylimidazolidin-1-yl)methyl]-N-methylthiophene-3-carboxamide] is 0.0089 µM; for `CN(Cc1ccc(F)cc1)C(=O)c1csc(CN2C(=N)NC(c3ccccc3)(c3ccccc3)C2=O)n1` [Example 95, N-(4-fluorobenzyl)-2-[(2-imino-5-oxo-4,4-diphenylimidazolidin-1-yl)methyl]-N-methyl-1,3-thiazole-4-carboxamide] it is 0.03 µM.
